Results reported in patent publication US20230372227A1, “PRESERVATIVE COMPRISING POLYLYSINE AND CAPRYLYL GLYCERYL ETHER FOR EXTERNAL-USE SKIN FORMULATIONS AND COSMETICS COMPOSITION COMPRISING SAME” (ACTIVON CO., LTD., priority 2020, published 2023).

What was measured:
Assay in all cases: Minimum inhibitory concentration (MIC) of preservatives
Assay type in all cases: cell-based
[1] = system: Aspergillus brasiliensis (ATCC 16404); settings: Experimental Example 1; growth inhibited by about 95% or more; about 10^6 CFU/ml; about 25° C., 24 to 48 hours
Protocol: (§1) In this experimental example, in order to evaluate the antimicrobial effect of the preservatives for skin external preparations, prepared in Examples 1 to 5, the minimum inhibitory concentrations (MICs) of the preservative of each Example against bacteria or fungi, including Escherichia coli (ATCC 8739), Pseudomonas aeruginosa (ATCC 9027), Staphylococcus aureus (ATCC 6538), Candida albicans (ATCC 10231), and Aspergillus brasiliensis (ATCC 16404), were measured.
(§2) Specifically, each of the preservatives for skin external preparations, prepared in Examples 1 to 5, was diluted to about 13% to about 25%, and each of the dilutions was further serially diluted 1:1 (10 times). Thereby, samples of various concentrations (about 0.05% to about 10%) for each of the preservatives for skin external preparations, prepared in Examples 1 to 5, were prepared. Each of the obtained samples was added to tryptic soy broth (TSB) medium or potato dextrose agar (PDA) medium. In about 10 ml of the medium to which each sample was added, each type of bacteria or fungi described above was seeded so that the final concentration of the bacteria or fungi was about 10^6 CFU/ml, and then the bacteria were cultured at about 32° C. for about 24 hours to 48 hours, and fungi were cultured at about 25° C. for about 24 hours to 48 hours. Thereafter, the minimum inhibitory concentration (MIC) of each sample capable of inhibiting the growth of the bacteria or fungi by about 95% or more was determined by observing the state of the bacterial or fungal culture medium. The growth of normal bacteria in a medium to which no sample was added was measured and used as a positive control, and the MIC for the growth of bacteria or fungi in a medium to which polyepsilon-lysine, caprylyl glyceryl ether, or propylene glycol was added alone was measured and used as a control.
(§3) In this experimental example, in order to evaluate the antimicrobial effect of a preservative for a skin external application comprising polylysine, caprylyl glyceryl ether and a glycol compound at a weight ratio of 0.1 to 5:10 to 30:65 to 75, the minimum inhibitory concentrations (MICs) of the preservative of each Example against bacteria or fungi, including Escherichia coli (ATCC 8739), Pseudomonas aeruginosa (ATCC 9027), Staphylococcus aureus (ATCC 6538), Candida albicans (ATCC 10231), and Aspergillus brasiliensis (ATCC 16404), were measured. Polyepsilon-lysine was used as the polylysine, and propylene glycol, butylene glycol, or pentylene glycol was used as the glycol compound.
(§4) Each of the preservatives for skin external preparations was diluted to about 10%, and each of the dilutions was further serially diluted 1:1 ([…]). Thereby, samples of various concentrations (about 0.01% to about 10%) for each of the preservatives for skin external preparations were prepared. Each of the obtained samples was added to tryptic soy broth (TSB) medium or potato dextrose agar (PDA) medium. In about 10 ml of the medium to which each sample was added, each type of bacteria or fungi described above was seeded so that the final concentration of the bacteria or fungi was about 10^6 CFU/ml, and then the bacteria were cultured at about 32° C. for about 24 hours to 48 hours, and fungi were cultured at about 25° C. for about 24 hours to 48 hours. […] The growth of normal bacteria in a medium to which no sample was added was measured and used as a positive control.

[2] = system: Candida albicans (ATCC 10231); settings: Experimental Example 1; growth inhibited by about 95% or more; about 10^6 CFU/ml; about 25° C., 24 to 48 hours
Protocol: as §1, §2, §3, §4

[3] = system: Escherichia coli (ATCC 8739); settings: Experimental Example 1; growth inhibited by about 95% or more; about 10^6 CFU/ml; about 32° C., 24 to 48 hours
Protocol: as §1, §2, §3, §4

[4] = system: Pseudomonas aeruginosa (ATCC 9027); settings: Experimental Example 1; growth inhibited by about 95% or more; about 10^6 CFU/ml; about 32° C., 24 to 48 hours
Protocol: as §1, §2, §3, §4

[5] = system: Staphylococcus aureus (ATCC 6538); settings: Experimental Example 1; growth inhibited by about 95% or more; about 10^6 CFU/ml; about 32° C., 24 to 48 hours
Protocol: as §1, §2, §3, §4

CC(O)CO (centres unmarked) [Propylene glycol]
>10 %, w/w: MIC (%, w/w) of sample A. brasiliensis [1] | MIC (%, w/w) of sample C. albicans [2] | MIC (%, w/w) of sample E. coli [3] | MIC (%, w/w) of sample P. aeruginosa [4] | MIC (%, w/w) of sample S. aureus [5]
